Data taken from patent US11439641B2, “Pyrimidine JAK inhibitors for the treatment of skin diseases” (THERAVANCE BIOPHARMA R&D IP, LLC, priority 2019, dated 2022).

Assays:
[1] = test system: Caco-2 cell monolayer; experiment: Caco-2 Permeation Assay; type: in vitro ADME; conditions: Papp, 5 μM compound; for Cacoverap Kp 10^−6 cm/sec: A→B in the presence of 25 μM verapamil (P-gp inhibitor); for Caco Kp 10^−6 cm/sec: apical to basal (A→B)
Method in brief: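 Compound at 5 μM, in duplicate, crosses Caco-2 monolayers apical to basal over 120 min at 37 °C. This is run with and without 25 μM verapamil to test for P-gp efflux. Samples are quantified by LC-MS/MS, and Papp in cm/sec is calculated as dQ/(dt × area × concentration).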

[2] = target: JAK3 (Homo sapiens (Human), UniProt P52333); experiment: Biochemical JAK and Tyk2 Kinase Assays (LanthaScreen), JAK3; conditions: 1.6 μM ATP (Km); pIC50 converted to pKi by Cheng-Prusoff
[3] = Human Liver Microsome Assay; conditions: human liver microsomes 0.1 mg/mL, 0.1 μM compound, 1 mM NADPH, 37° C.
Experimental: Assay 4: Human Liver Microsome Assay
The objective of this assay was to assess the metabolic stability of test compounds in an in vitro human liver sub-fraction. Human liver microsomes obtained from Bioreclamation-IVT (Baltimore, Md.) were thawed on ice and diluted into 0.1 M potassium phosphate buffer pH 7.4 to yield final incubation protein concentrations of 0.1 mg/mL. Test compounds (10 mM) were diluted into NADPH cofactor to yield final incubation concentrations of 0.1 μM test compound and 1 mM NADPH. Incubations were conducted at 37° C. temperature and test aliquots were taken at time points 0, 5, 8, 15, 30 and 45 minutes. Each aliquot was crashed into water with 3% formic acid and 1 μM internal standard. The resulting samples were injected onto an LC-MS/MS system for analysis.
For each incubation, the peak area of the analytes in each t0 aliquot was set to 100% and the peak areas from subsequent time point aliquots were converted to percentage of parent compound remaining relative to t0. The percentage of parent compound remaining was converted to natural log scale and plotted versus time in minutes. A linear regression analysis was performed for the initial decline of the parent disappearance profile and a formula for the best-fit line determined. The slope of the resultant line was normalized to protein concentration in mg/mL protein or number of cells/mL and CLint was calculated as follows for liver microsomes: CLint(μL·min^−1·mg^−1)=(Slope×1000)/[protein,mg/mL]
CLint values from 9-49 μl/min/mg represent moderate clearance (i.e. 30-70% of hepatic blood flow in human) and values >50 μl/min/mg represent high hepatic clearance (i.e. >70% of hepatic blood flow in human).

[4] = target: JAK1 (Homo sapiens (Human), UniProt P23458); experiment: Biochemical JAK and Tyk2 Kinase Assays (LanthaScreen), JAK1; conditions: 25 μM ATP (Km); pIC50 converted to pKi by Cheng-Prusoff
[5] = test system: IL-2 stimulated pSTAT5 in Tall-1 T cells; experiment: Inhibition of IL-2 Stimulated pSTAT5 in Tall-1 T Cells; type: cell-based; conditions: Tall-1 human T cell line, IL-2 300 ng/mL, AlphaLisa
Method in brief: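 Cells preincubated with compound 1 hour at 37° C, then stimulated with IL-2 (final 300 ng/mL) for 30 minutes. After lysis, pSTAT5 (Tyr694/699) read by AlphaLISA luminescence. IC50 from inhibition curves, reported as pIC50 (mean±SD).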

[6] = Solubility Assay in Organic Excipients; conditions: maximum upper limit 20,000 μM
Experimental: Assay 6: Solubility Assay in Organic Excipients
The purpose of this assay was to quantify the solubility of test compounds in different organic excipients such as diisopropyl adipate, medium chain triglycerides (MCT), propylene glycol, and polyethylene glycol. The assay required 80 μL of 100 mM DMSO test compound solution per desired excipient in addition to 40 μL required to make a test standard.
The standard was created by diluting 40 μL of 100 mM DMSO compound stock solution into 160 μL of methanol and was shaken for five minutes to ensure solution uniformity. […] This 20,000 μM solution was run on an Agilent 1260 LC-MS system by injecting 0.2 μL in order to obtain the peak area. For the test solutions, 80 μL of 100 mM DMSO compound stock solution, per excipient, were dried down into a powder overnight. Once in powder form, 400 μL of the desired excipient was added to the powder and allowed to shake vigorously for four hours. The maximum theoretical concentration for this sample solution was 20,000 μM. After four hours of shaking, the samples were centrifuged for 10 minutes at 3,000 RPM before injecting 0.2 μL on the same Agilent 1260 LC-MS system to obtain the peak area.

[7] = Aqueous Solubility Assay; conditions: PBS buffer pH 7.4; maximum upper limit 1,000 μM
Experimental: Assay 5: Aqueous Solubility Assay
The purpose of this assay was to quantify the solubility of test compounds in pH 4 and pH 7.4 PBS buffers. The assay required 40 μL of 10 mM DMSO test compound solution per desired buffer in addition to 20 μL required to make a test standard. For example, to test a compound in both buffers, 100 μL (2*40 μL+20 μL) of 10 mM DMSO compound stock solution was required.
The standard was created by diluting 20 μL of 10 mM DMSO compound stock solution into 180 μL of methanol and was shaken for five minutes to ensure solution uniformity. […] This 1,000 μM solution was run on an Agilent 1260 LC-MS system by injecting 2 μL in order to obtain the peak area. For the test solutions, 40 μL of 10 mM DMSO compound stock solution, per PBS buffer condition, were dried down into a powder overnight. Once in powder form, 400 μL of the desired PBS buffer was added to the powder and allowed to shake vigorously for four hours. The maximum theoretical concentration for this sample solution was 1,000 μM. After four hours of shaking, the samples were centrifuged for 10 minutes at 3,000 RPM before injecting 2 μL on the same Agilent 1260 LC-MS system to obtain the peak area.
In Table 6 below, A represents a value above 500, B represents a value between 250 and 500, C represents a value between 50 and 250, D represents a value between 10 and 50, and E represents a value below 10.

[8] = target: Tyk2 (Homo sapiens (Human), UniProt P29597); experiment: Biochemical JAK and Tyk2 Kinase Assays (LanthaScreen), Tyk2; conditions: 10 μM ATP (Km); pIC50 converted to pKi by Cheng-Prusoff
Experimental: (§1) Assay 1: Biochemical JAK and Tyk2 Kinase Assays
(§2) A panel of four LanthaScreen JAK biochemical assays (JAK1, 2, 3 and Tyk2) were carried in a common kinase reaction buffer (50 mM HEPES, pH 7.5, 0.01% Brij-35, 10 mM MgCl2, and 1 mM EGTA). Recombinant GST-tagged JAK enzymes and a GFP-tagged STAT1 peptide substrate were obtained from Life Technologies.
(§3) Serially or discretely diluted compounds were pre-incubated with each of the four JAK enzymes and the substrate in white 384-well microplates (Corning) at ambient temperature for 1 h. ATP was subsequently added to initiate the kinase reactions in 10 μL total volume, with 1% DMSO. The final enzyme concentrations for JAK1, 2, 3 and Tyk2 are 4.2 nM, 0.1 nM, 1 nM, and 0.25 nM respectively; the corresponding Km ATP concentrations used are 25 μM, 3 μM, 1.6 μM, and 10 μM; while the substrate concentration is 200 nM for all four assays. Kinase reactions were allowed to proceed for 1 hour at ambient temperature before a 10 μL preparation of EDTA (10 mM final concentration) and Tb-anti-pSTAT1 (pTyr701) antibody (Life Technologies, 2 nM final concentration) in TR-FRET dilution buffer (Life Technologies) was added. The plates were allowed to incubate at ambient temperature for 1 h before being read on the EnVision reader (Perkin Elmer). Emission ratio signals (520 nm/495 nm) were recorded and utilized to calculate the percent inhibition values based on DMSO and background controls.
(§4) For dose-response analysis, percent inhibition data were plotted vs. compound concentrations, and IC50 values were determined from a 4-parameter robust fit model with the Prism software (GraphPad Software). Results were expressed as pIC50 (negative logarithm of IC50) and subsequently converted to pKi (negative logarithm of dissociation constant, Ki) using the Cheng-Prusoff equation.

[9] = target: JAK2 (Homo sapiens (Human), UniProt O60674); experiment: Biochemical JAK and Tyk2 Kinase Assays (LanthaScreen), JAK2; conditions: 3 μM ATP (Km); pIC50 converted to pKi by Cheng-Prusoff
Experimental: as §1, §2, §3, §4

Chain of JAK1 (P23458 whole entry): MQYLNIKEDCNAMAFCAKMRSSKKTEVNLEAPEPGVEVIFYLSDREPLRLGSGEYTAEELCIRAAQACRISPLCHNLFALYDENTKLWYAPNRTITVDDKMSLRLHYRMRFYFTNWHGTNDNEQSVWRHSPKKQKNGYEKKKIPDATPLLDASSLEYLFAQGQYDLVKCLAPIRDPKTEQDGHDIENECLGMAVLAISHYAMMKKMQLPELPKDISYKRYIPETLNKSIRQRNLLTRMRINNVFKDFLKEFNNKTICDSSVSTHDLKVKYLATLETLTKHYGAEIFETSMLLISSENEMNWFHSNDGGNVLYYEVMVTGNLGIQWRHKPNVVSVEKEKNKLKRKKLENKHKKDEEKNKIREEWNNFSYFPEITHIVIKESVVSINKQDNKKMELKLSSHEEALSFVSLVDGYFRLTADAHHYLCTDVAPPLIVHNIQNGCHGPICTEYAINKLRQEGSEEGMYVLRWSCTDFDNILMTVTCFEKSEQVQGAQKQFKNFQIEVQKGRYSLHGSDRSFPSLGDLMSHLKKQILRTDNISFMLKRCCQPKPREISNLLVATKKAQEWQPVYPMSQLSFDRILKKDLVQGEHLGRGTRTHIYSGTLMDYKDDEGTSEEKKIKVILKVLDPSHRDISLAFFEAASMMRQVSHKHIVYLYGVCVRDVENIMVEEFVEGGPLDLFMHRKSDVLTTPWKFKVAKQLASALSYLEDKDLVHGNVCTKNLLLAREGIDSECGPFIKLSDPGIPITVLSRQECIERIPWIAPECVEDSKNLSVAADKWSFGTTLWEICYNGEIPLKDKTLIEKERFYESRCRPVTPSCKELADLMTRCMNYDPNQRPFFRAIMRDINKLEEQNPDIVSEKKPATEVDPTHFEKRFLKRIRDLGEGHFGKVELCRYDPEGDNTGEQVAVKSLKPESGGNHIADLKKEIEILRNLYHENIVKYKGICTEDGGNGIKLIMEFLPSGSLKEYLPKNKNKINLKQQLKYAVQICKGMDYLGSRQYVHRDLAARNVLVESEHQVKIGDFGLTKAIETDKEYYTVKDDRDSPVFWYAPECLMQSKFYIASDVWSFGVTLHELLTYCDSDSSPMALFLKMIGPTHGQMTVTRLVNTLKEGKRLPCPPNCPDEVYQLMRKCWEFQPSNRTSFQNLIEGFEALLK
Chain of JAK3 (P52333 whole entry): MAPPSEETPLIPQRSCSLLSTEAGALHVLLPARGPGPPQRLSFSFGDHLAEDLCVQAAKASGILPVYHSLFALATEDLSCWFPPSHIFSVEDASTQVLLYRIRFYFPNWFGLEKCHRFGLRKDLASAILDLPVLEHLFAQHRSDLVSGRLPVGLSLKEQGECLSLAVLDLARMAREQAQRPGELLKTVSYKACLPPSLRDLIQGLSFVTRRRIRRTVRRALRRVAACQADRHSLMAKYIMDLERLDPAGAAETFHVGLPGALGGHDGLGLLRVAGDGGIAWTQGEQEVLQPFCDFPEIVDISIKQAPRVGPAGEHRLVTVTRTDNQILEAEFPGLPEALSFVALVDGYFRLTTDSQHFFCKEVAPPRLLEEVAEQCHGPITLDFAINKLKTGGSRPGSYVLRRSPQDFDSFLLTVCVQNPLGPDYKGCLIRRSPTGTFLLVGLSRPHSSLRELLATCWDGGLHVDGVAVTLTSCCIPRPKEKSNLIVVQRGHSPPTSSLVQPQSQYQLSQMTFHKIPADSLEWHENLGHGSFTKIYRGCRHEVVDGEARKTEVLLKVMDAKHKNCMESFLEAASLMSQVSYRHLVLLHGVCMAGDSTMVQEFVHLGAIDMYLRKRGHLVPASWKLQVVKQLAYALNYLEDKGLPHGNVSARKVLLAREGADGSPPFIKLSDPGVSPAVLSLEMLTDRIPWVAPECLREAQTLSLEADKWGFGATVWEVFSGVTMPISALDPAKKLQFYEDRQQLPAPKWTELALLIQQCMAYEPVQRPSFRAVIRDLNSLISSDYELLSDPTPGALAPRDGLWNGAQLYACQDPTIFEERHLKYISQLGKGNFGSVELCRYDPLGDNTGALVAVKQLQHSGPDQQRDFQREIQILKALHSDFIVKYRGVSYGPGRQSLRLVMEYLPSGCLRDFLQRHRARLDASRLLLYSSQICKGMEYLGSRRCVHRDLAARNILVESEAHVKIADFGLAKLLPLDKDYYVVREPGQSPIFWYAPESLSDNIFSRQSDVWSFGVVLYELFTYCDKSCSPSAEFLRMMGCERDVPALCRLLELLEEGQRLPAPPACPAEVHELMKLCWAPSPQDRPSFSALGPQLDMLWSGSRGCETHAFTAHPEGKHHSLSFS
Chain of JAK2 (O60674 whole entry): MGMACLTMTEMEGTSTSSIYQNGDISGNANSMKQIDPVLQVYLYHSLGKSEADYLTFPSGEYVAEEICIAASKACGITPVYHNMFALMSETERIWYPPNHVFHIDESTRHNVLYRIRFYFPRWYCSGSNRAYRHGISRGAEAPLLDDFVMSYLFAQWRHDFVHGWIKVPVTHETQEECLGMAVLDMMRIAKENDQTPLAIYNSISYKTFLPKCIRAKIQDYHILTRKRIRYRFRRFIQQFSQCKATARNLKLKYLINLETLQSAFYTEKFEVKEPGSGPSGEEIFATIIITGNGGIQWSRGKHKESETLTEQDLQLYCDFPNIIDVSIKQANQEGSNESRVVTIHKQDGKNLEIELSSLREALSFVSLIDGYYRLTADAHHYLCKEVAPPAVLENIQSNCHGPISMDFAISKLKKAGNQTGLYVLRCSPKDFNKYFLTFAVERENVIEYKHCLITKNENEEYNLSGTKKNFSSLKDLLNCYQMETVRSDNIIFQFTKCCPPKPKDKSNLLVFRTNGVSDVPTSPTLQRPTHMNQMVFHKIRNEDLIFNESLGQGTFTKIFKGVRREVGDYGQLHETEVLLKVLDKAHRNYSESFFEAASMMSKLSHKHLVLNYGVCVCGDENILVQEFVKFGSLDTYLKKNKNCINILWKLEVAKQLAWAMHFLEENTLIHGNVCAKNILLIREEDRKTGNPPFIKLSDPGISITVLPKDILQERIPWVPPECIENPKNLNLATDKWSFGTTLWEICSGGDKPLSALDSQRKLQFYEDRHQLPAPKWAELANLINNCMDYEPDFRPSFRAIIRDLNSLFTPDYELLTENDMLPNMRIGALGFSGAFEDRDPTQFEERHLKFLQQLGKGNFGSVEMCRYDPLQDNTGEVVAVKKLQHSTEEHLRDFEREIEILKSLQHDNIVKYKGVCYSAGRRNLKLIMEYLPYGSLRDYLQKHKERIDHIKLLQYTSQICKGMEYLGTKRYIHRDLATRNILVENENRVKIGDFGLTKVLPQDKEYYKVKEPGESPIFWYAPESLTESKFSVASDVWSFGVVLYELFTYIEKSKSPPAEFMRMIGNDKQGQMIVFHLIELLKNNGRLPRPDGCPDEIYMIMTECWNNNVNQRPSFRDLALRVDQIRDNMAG
Chain of Tyk2 (P29597 whole entry): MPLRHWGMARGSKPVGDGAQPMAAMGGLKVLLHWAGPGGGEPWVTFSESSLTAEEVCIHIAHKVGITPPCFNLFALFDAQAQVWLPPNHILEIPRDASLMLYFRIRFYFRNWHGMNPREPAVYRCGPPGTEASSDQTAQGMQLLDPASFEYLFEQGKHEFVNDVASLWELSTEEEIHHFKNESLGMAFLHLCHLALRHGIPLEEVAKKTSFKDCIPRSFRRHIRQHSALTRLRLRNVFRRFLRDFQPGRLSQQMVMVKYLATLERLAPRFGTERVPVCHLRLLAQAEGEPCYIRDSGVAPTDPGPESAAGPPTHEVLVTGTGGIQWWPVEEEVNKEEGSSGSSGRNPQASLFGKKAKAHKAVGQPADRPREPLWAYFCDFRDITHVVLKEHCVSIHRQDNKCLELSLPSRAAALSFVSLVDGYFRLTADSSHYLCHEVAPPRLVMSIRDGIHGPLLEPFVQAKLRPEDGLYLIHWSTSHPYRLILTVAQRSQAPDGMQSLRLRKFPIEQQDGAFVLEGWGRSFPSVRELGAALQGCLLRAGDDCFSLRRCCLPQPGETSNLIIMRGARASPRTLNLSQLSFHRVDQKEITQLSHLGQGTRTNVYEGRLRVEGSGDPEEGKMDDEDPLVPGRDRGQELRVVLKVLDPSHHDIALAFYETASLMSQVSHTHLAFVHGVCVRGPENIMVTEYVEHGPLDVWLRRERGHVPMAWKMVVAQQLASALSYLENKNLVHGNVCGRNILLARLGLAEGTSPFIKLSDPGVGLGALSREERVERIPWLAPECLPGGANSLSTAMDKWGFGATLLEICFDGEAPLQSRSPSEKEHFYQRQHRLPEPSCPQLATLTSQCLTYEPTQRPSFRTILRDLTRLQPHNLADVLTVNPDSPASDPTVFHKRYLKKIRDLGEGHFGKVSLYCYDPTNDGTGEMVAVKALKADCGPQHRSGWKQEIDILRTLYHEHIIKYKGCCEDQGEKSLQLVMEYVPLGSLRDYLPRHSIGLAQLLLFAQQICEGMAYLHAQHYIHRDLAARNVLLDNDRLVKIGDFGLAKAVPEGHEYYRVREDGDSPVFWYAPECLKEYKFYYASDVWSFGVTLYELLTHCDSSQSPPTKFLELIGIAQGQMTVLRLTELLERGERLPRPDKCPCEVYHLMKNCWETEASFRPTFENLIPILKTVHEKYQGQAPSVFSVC

Row | SMILES | Cacoverap Kp 10^−6 cm/sec [1] | Caco Kp 10^−6 cm/sec [1] | JAK 3 (pKi) [2] | HLM Clin μL/min/mg [3] | JAK 1 (pKi) [4] | Tall-1 IL2 pSTAT5 (pIC50) [5] | Solubility in PEG400 (mg/mL) ([6]; PEG400) | Solubility in Diisopropyl adipate (mg/mL) ([6]; diisopropyl adipate) | Solubility in MCT (mg/mL) ([6]; medium chain triglycerides (MCT)) | Solubility in Propylene glycol (mg/mL) ([6]; propylene glycol) | Solubility at PH 7.4 (μmol) [7] | Tyk 2 (pKi) [8] | JAK 2 (pKi) [9]
1 | CCS(=O)(=O)N1[C@@H]2CCC[C@H]1C[C@H](N(C)c1nc(Nc3cc(C)[nH]n3)cc(C3CCOC3)n1)C2 (stereo partly drawn) [Compound 5, N^2-((1R,3s,5S)-9-(ethylsulfonyl)-9-azabicyclo[3.3.1]nonan-3-yl)-N2-methyl-N4-(5-methyl-1H-pyrazol-3-yl)-6-(tetrahydrofuran-3-yl)pyrimidine-2,4-diamine] | A (A represents a value above 35×10^−6 cm/sec) | A (A represents a value above 30×10^−6 cm/sec) | B (B represents a pKi value between 9 and 10 (Ki between 1 nM and 0.1 nM)) | A (A represents a Clint value between 1250 and 3000) | A (A represents a pKi value ≥10 (Ki≤0.1 nM)) | A (A represents a pIC50 value ≥8.0) | A (A represents a value above 10) | B (B represents a value between 5 and 10) | C (C represents a value below 5) | A (A represents a value above 10) | E (E represents a value below 10) | – | –
2 | CCS(=O)(=O)N1[C@@H]2CCC[C@H]1C[C@H](N(C)c1nc(Nc3cc(C)[nH]n3)cc([C@H]3CCCO3)n1)C2 [Compound 9] | A (A represents a value above 35×10^−6 cm/sec) | A (A represents a value above 30×10^−6 cm/sec) | B (B represents a pKi value between 9 and 10 (Ki between 1 nM and 0.1 nM)) | A (A represents a Clint value between 1250 and 3000) | A (A represents a pKi value ≥10 (Ki≤0.1 nM)) | A (A represents a pIC50 value ≥8.0) | – | – | – | – | C (C represents a value between 50 and 250) | A (A represents a pKi value ≥10 (Ki≤0.1 nM)) | A (A represents a pKi value ≥10 (Ki≤0.1 nM))
3 | CCS(=O)(=O)N1[C@@H]2CCC[C@H]1C[C@H](N(C)c1nc(Nc3cc(C)[nH]n3)cc([C@@H]3CCCO3)n1)C2 [Compound 10] | A (A represents a value above 35×10^−6 cm/sec) | A (A represents a value above 30×10^−6 cm/sec) | B (B represents a pKi value between 9 and 10 (Ki between 1 nM and 0.1 nM)) | A (A represents a Clint value between 1250 and 3000) | A (A represents a pKi value ≥10 (Ki≤0.1 nM)) | A (A represents a pIC50 value ≥8.0) | – | – | – | – | C (C represents a value between 50 and 250) | A (A represents a pKi value ≥10 (Ki≤0.1 nM)) | A (A represents a pKi value ≥10 (Ki≤0.1 nM))
